Article PMC8092218, “NirA Is an Alternative Nitrite Reductase from Pseudomonas aeruginosa with Potential as an Antivirulence Target” (mBio, 2021)

Target: T1, PA4130 (NirA) (Pseudomonas aeruginosa, UniProt Q9HWQ1)
T1 construct: full ORF, N-terminal hexahistidine tag, plasmid pSK4130-N; coexpressed with E. coli cysG in E. coli NiCo21; IMAC and chitin column; monomer; siroheme and 4Fe-4S
Assay: reduced methyl viologen oxidation assay, spectrophotometric; Griess diazotization
Type: biochemical
Conditions: electron acceptor; reduced methyl viologen or dithionite-reduced spinach ferredoxin as donor; anaerobic

T1 sequence (Q9HWQ1 entry or part of it): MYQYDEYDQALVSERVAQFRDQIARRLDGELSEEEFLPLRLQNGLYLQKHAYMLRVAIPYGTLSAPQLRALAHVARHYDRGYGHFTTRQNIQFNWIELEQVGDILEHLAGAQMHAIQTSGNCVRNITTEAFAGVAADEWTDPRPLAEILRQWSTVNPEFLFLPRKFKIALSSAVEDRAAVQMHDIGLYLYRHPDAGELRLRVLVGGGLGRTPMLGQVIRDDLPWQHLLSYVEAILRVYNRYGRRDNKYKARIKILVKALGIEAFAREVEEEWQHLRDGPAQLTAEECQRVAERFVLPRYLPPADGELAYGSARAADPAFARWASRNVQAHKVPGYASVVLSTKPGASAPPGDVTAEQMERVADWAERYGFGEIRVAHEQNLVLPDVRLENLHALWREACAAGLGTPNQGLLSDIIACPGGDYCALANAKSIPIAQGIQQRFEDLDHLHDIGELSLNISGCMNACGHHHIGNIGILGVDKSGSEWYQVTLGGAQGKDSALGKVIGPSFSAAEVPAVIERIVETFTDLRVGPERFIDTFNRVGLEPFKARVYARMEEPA

O=NO [nitrite]
reduced methyl viologen oxidation assay, spectrophotometric; Griess diazotizatio: PA4130 was able to oxidize MV only in the presence of nitrite
